This is an account of results in patent US7662388B2, “Endogenous peptide and active subfragments thereof” (Innoventus Project AB, priority 2003, dated 2010).

Data set [1] relates to T241 fibrosarcoma tumour vessels. Nature of the data set: CD31 staining and stereological quantification of tumour vascular parameters. The format is in vivo, mice. How it is done:
Paraffin-sections of tumours from control- or HRGP-treated animals were immunohistochemically (IHC) stained for CD31 and Ki67 using a goat anti-mouse CD31 antibody (1506; Santa Cruz), diluted 1:500 and incubated at +4° C. over night, and a rat anti-mouse Ki67 antibody (TEC-3/M7249; DAKO) diluted 1:50 and incubated for 30 min. at room temperature, according to standard IHC procedures. Detection of apoptotic cells by the TUNEL-technique was performed using ApopTag™ (Intergen Company) according to the manufacturer's protocol. Stereological quantification of vascular parameters was performed as described earlier by Weibel et al (1979) and Gundersen et al (1988). Quantification of the relative number of Tunel- and Ki67-positive cells was calculated from approximately 3000 cells per tumour section, in three tumours from each treatment group. Significance at the level of P<0.05 was calculated using Students t-test.
Sections of paraffin-embedded tumours from control (IgG)- or HRGP-treated mice were immunohistochemically stained for CD31 expression to visualise the vessels. […] Stereological quantification of vascular parameters was performed as described earlier by Weibel et al (1979) and Gundersen et al (1988). This method of quantifying tumour angiogenesis relates the length, volume and surface area of the vessels to tumour volume.

For data set [2] the following is noted: in vivo; cited from earlier work.
Another data set concerns BCE cells. In words: endothelial cell adhesion to matrix proteins. The class given is cell-based, bovine. As to conditions: HRGP 100 ng/ml, serum-free medium, 45 min. As to the method: BCE cells were detached using non-enzymatic “Cell Dissociation Solution” (Sigma), washed and re-suspended in DMEM/0.1% BSA and FGF-2 (2 ng/ml). The cells were seeded in serum-free medium, with or without HRGP (100 ng/ml), into wells pre-coated with BSA, collagen I, collagen IV, laminin-1 or vitronectin, respectively (CytoMatrix ECM 205 kit, Chemicon). The cells were incubated for 45 (collagen I, collagen IV and vitronectin) or 60 minutes (laminin-1), washed three times in PBS and stained with Hoechst 33342 (1 μg/ml; Molecular Probes). The cells were micro-photographed using the 2× objective and the number of attached cells was counted using the “Easy Image Analysis” software (Tekno Optik). Statistical analysis was performed by ANOVA and Tukeys honestly significant difference (HSD) test. The standard deviation is based on the pooled variance.

Data set [3] relates to primary BCE cells. In words: chemotaxis (migration) assay in modified Boyden chamber, BCE cells. The format is cell-based, bovine. As to the method:
The porcine aortic endothelial (PAE) cell line overexpressing FGF receptor-1 (FGFR-1) (Wennström et al 1992) was cultured in Ham's F12/10% fetal bovine serum (FCS) and NIH 3T3 murine fibroblasts were cultured in Dulbecco's modified medium (DMEM)/10% newborn calf serum (NCS). F12, DMEM and serum were bought from Life Technologies. Primary bovine adrenal cortex capillary endothelial (BCE) cells were cultured on gelatin-coated dishes in DMEM/10% NCS and 2 ng/ml FGF-2 (Boehringer Mannheim). For chemotaxis assays, both PAE and NIH 3T3 cells were serum-starved over night in 0.1% BSA and BCE cells in 0.5% NCS. Human embryonic kidney (HEK) 293-EBNA cells were cultured in DMEM/10% FCS. Approximately every second month they were given 0.25 mg/ml G418 (Calbiochem) to ensure positive selection of the EBNA-1 expressing cells.
A migration assay was performed in a modified Boyden chamber as described earlier (Auerbach et al., 1991) using micropore polycarbonate filters (8 μm thick, 8 μm pore) coated with type-1 collagen solution at 100 μg/ml (Vitrogen 100, Collagen Corp). BCE, PAE/FGFR-1 or NIH 3T3 cells were preincubated or not with HRGP (100 ng/ml) for 30 min, trypsinised and resuspended at a concentration of 7.5×10^5 cells/ml in Dulbecco's modified essential medium (Invitrogen) containing 0.25% BSA and Trasylol at 1000 KIE. FGF-2 and VEGF-A was used at 5 ng/ml, HRGP and the protein C inhibitor (PCI) at 100 ng/ml and BSA at 0.25%. After 5 h at 37° C., migrated cells were stained with Giemsa and counted using an image analysis software (Easy Image Analysis) from Tekno Optik AB, Sweden. All samples were analysed in at least six parallel wells for each treatment.

The test system of data set [4] is chicken chorioallantoic membrane (CAM). In words: chicken chorioallantoic membrane (CAM) angiogenesis assay. The class given is in vivo. As to conditions: FGF-2 or VEGF-A 0.2 mg per filter, HRGP 3 mg per filter, three days. How it is done: The effect of HRGP on anglogenesis was tested in the chicken chorioallantoic membrane (CAM) assay.
The conditions for the chorioallantoic membrane (CAM) assay followed essentially a previously described procedure (Friedlander et al (1995), Dixelius et al, (2000)). FGF-2 (Boehringer Mannheim) and VEGF-A (Peprotech) was used at 0.2 mg per filter and purified pHRGP or rHRGP at 3 mg per filter. The treated CAM's were inspected in a light microscope and the score, from 0 (low) to 3 (high) was based on the number of vessel branch points. Average values for 5-6 embryos were recorded.
A filter disc soaked in vehicle or growth factor, with or without HRGP, was placed on top of the CAM in the vicinity of a large vessel and incubated for three days. Treatment of the CAM with growth factors, such as FGF-2, stimulated angiogenesis (FIG. 1C; Table 1).

Data set [5] deals with primary BCE cells. Nature of the data set: comparative study pep2/pep3, chemotaxis. As to conditions: 100 ng/ml, FGF-2 10 ng/ml. The format is cell-based, bovine. How it is done: Primary endothelial cells were starved over night in 0.5% normal calf serum. A migration assay was performed in a modified Boyden chamber as described earlier (Auerbach et al., 1991) using micropore polycarbonate filters (8 μm thick, 8 μm pore) coated with type-1 collagen solution at 100 μg/ml (Vitrogen 100, Collagen Corp). Cells were trypsinized and resuspended at 7.5×10^5 cells/ml in Dulbecco's modified essential medium (Invitrogen) containing 0.25% BSA and Trasylol at 1000 KIE. The cell suspension was added in the upper chamber and FGF-2 (10 ng/ml), HRGP (100 ng/ml), peptide 2 or 3 (50 ng/ml) in medium containing 0.25% BSA were added to the lower chamber. The peptides were dissolved in PBS containing a 10-fold molar excess (Zn:peptide) of Zn^2+-acetate. After 5 h at 37° C., cells that had migrated through the filter were stained with Giemsa and counted using the Easy Image Analysis software. All samples were analyzed in at least six wells for each treatment. Results of the study are illustrated in FIG. 7.

Turning to “HRGP: mature human Histidine Rich Glycoprotein, about 507 amino acid residues”, the “vessel diameter in tumours, visual inspection of CD31 staining” value in data set [1] (HRGP-treated vs control) is “reduced vessel diameter”. Further, in data set [1] (tumours from HRGP-treated vs IgG-treated mice), the “vascular parameters (length, volume, surface area of vessels related to tumour volume)” value is listed as “all six vascular parameters determined were reduced”. The plasma half-life result in data set [2] was “three days”. In addition, the “endothelial cell adhesion to vitronectin, collagen I and collagen IV” value with BCE cells is recorded as “decreases endothelial cell adhesion”. In the data set with primary BCE cells [3] (100 ng/ml HRGP), the “FCS-induced chemotaxis of BCE cells” value is “not inhibited”. Further, the “VEGF-A-induced chemotaxis of BCE cells” value with primary BCE cells [3] (100 ng/ml HRGP, VEGF-A 5 ng/ml) is “inhibited”. Besides, in the data set with primary BCE cells [3] (100 ng/ml protein, FGF-2 5 ng/ml, 5 h), the “FGF-2-induced chemotaxis of BCE cells” value is “completely arrested”. The “growth factor-induced CAM angiogenesis (newly formed vessels)” value in data set [4] is recorded as “effectively inhibited”. The “FGF-2-induced chemotaxis of primary BCE cells” value in the data set on primary BCE cells [5] is “inhibited”.
